Laboratory results from patent US20130178453A1, “Cannabinoid Agonists” (priority 2010, published 2013).
Values joined by “and” are separate entries in the source; they are usually repeats but may differ in a detail not shown here. Equal values may be shown once.

How the values were obtained:
[1] = molecular target: T1, hCB1 (Homo sapiens, UniProt P21554); assay: hCB1 GTPγS agonist assay (HEK-293 membranes); assay type: biochemical
Text: cDNA expression clones for human CB 1 (hCB1, Genbank Accession No. AY225225) and human CB2 (hCB2, Genbank Accession No. AY242132) expressed in vector pcDNA3.1+ were purchased from UMR cDNA Resource Center, Rolla, Mo. (Clone ID CNR01L000 for hCB1; CNR0200000 for hCB2).
Stable, HEK-293-derived cell lines that recombinantly express hCB1 or hCB2 were established. In brief, the clone hCB1 (CNR1L) or hCB2 (CNR2) was transfected into human embryonic kidney cells (HEK-293) using Lipofectamine 2000 (Gibco, Cat#11668-019) according to the manufacturer's protocol. Transfected clones were isolated by single colony purification and clones were screened for receptor expression using a whole cell, ^3H—CP 55,940 radioligand binding assay. HEK-293 stable cells were maintained in Dulbecco's modified Eagles medium (DMEM) containing 10% fetal bovine serum, 2 mM L-glutamine and 0.5 mg/mL G-418.
Membranes were isolated from transfected cells as follows. Monolayers of cultured cells were washed twice with phosphate-buffered saline (PBS). Cells were scraped into 20 mM HEPES, pH 7.4, 10 mM EDTA containing complete cocktail protease inhibitors (Roche, Catalog #11 697 498 001), and were homogenized by an electric-powered mechanical probe homogenizer (Omni GLH; probe G7-195S) for 40 seconds at 7000 rpm. Homogenates were centrifuged 10 minutes at 1000×g at 4° C. The supernatant was collected and was centrifuged for 1 hour at 40,000×g. The supernatant was then decanted and the resulting pellet was re-suspended in 20 mM HEPES, pH 7.4, 5 mM MgCl2, 1 mM EDTA, 10% sucrose with complete cocktail protease inhibitors. Protein concentration of membrane suspensions were measured by Bradford Protein Assay using bovine serum albumin as the standard (BioRad catalog #500-0006). Protein concentrations of membrane suspensions were adjusted with the final buffer in the range of 5 to 10 mg/mL and were stored at −80° C. until further use.
^35S GTPγS binding assays were performed by incubating recombinant cell membranes prepared above (5 μg) in the presence of scintillation proximity assay beads (SPA beads, Catalog #RPNQ0252 GE Healthcare, Buckinghamshire, England) in GTPγS binding buffer [50 mM HEPES (pH 7.4), 100 mM NaCl, 5 mM MgCl2, 0.001% saponin (Sigma catalog #S4521)] supplemented with 20 uM GDP (Sigma catalog #G7127) in the presence or absence of test compound. The reaction was carried out in 96-well microplates with 0.1 nM [^35S]GTPγS (specific activity=1250 Ci/mmol; Perkin Elmer catalog #NEG030X250UC) in a final volume of 100 μL. After a 90 min room temperature incubation, the reaction was analyzed using a scintillation counter (Perkin Elmer Microbeta instrument). Binding data were analyzed using GraphPad Prism.

[2] = molecular target: T1, hCB1; assay: hCB1 radioligand binding assay ([3H]-CP 55,940 displacement); conditions: hCB1 IC50 (CP displ, nM, HEK), HEK membranes
In short: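 Membranes from stable HEK-293 cells expressing recombinant hCB1 (2-10 μg protein) incubated 90 minutes at room temperature with 0.5 nM [3H]-CP 55,940 in 50 mM Tris-HCl pH 7.5, 5 mM MgCl2, 2.5 mM EDTA, 0.1% fatty acid free BSA. Filtration then scintillation counting; nonspecific binding with 1 μM unlabelled CP 55,940.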

[3] = molecular target: T2, hCB2 (Homo sapiens, UniProt P34972); assay: hCB2 cAMP agonist assay (HEK-293 cells); assay type: cell-based
In short: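 HEK-293 cells stably expressing hCB2, treated 30 min at 37° C with compound in HBSS/10 mM HEPES/0.1% BSA alongside forskolin (90 uM in the 3× solution, not final).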

[4] = molecular target: T1, hCB1; assay: hCB1 cAMP agonist assay (HEK-293 cells); assay type: cell-based
[5] = molecular target: T2, hCB2; assay: hCB2 GTPγS agonist assay (HEK-293 membranes); assay type: biochemical
In short: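 Membranes from HEK-293 cells transfected with human CB2 (5 μg) incubated with SPA beads, 0.1 nM [35S]GTPγS and 20 uM GDP in 50 mM HEPES pH 7.4, 100 mM NaCl, 5 mM MgCl2, 0.001% saponin. Incubation 90 min at room temperature. Agonist-stimulated binding read by scintillation counting.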

[6] = molecular target: T2, hCB2; assay: hCB2 radioligand binding assay ([3H]-CP 55,940 displacement); conditions: hCB2 IC50 (CP displ, nM, HEK), HEK membranes
In short: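 Membranes from cells transfected with human CB2 cDNA (pcDNA3.1+), kept in 20 mM HEPES pH 7.4, MgCl2, EDTA, sucrose with protease inhibitors.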

[7] = GTPγS agonist, HEK membranes, read-out: hCB1 EC50 (GTPyS ag, nM, HEK)
[8] = cAMP agonist, HEK, 96-well, read-out: hCB1 EC50 (cAMP ag, nM, HEK (96-well))

T2 sequence (P34972 whole entry): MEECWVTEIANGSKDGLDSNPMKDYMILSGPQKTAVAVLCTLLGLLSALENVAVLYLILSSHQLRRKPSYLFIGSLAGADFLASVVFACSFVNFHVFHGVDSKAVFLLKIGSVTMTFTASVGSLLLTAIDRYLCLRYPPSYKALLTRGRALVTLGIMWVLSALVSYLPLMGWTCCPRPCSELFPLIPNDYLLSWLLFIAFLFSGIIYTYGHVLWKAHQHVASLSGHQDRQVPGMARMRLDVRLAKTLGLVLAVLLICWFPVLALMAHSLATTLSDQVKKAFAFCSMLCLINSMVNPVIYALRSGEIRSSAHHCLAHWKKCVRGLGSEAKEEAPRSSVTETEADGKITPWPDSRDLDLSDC
T1 sequence (P21554 whole entry): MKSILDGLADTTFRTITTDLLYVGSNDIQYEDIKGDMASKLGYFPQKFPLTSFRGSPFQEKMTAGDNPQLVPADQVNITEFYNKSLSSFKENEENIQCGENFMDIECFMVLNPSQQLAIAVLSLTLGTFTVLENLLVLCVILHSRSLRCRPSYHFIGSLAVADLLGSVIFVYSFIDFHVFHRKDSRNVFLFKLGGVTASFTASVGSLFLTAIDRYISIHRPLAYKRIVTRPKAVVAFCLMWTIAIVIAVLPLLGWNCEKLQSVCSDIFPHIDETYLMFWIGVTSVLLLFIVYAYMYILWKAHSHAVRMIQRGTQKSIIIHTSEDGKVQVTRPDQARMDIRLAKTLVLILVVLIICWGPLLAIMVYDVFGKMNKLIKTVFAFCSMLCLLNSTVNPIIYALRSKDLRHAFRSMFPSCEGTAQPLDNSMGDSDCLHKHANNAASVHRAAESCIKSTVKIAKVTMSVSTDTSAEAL

Work on CCCn1cc(C(=O)c2cc3ccsc3n2CCC)c2ccccc21 [Compound I-62] yielded an EC50 [1] of 100 to 1000 nM, an IC50 [2] of less than 100 nM and an EC50 [3] of less than 100 nM. It also gave an EC50 [4] of less than 100 nM, an EC50 [5] of less than 100 nM and an IC50 [6] of less than 100 nM.
Compound CCCn1c(C(=O)c2c(C)n(CCC3CCOCC3)c3ccccc23)cc2ccsc21 [Compound I-57] has an EC50 [1] of 100 to 1000 nM, an IC50 [2] of 100 to 1000 nM and an EC50 [3] of less than 100 nM. It also gave an EC50 [4] of 100 to 1000 nM, an EC50 [5] of less than 100 nM and an IC50 [6] of less than 100 nM.
In the case of CCn1c(C(=O)c2c3c(n(CC4CCOCC4)c2C)CCCC3)cc2ccsc21 [Compound I-86], the EC50 [1, 7] is reported as 100 to 1000 nM, the IC50 [2] is reported as less than 100 nM and the EC50 [3] is reported as less than 100 nM. The EC50 [4, 8] was 100 to 1000 nM, the EC50 [5] was less than 100 nM and the IC50 [6] was less than 100 nM.
CCCn1c(C(=O)c2c(C)n(CCN3CCOCC3)c3sccc23)cc2ccccc21 [Compound I-11] gave an EC50 [1, 7] of 100 to 1000 nM, an IC50 [2] of less than 100 nM and an EC50 [3] of less than 100 nM. The EC50 [5] was less than 100 nM and the IC50 [6] was less than 100 nM.
Compound CCCn1c(C(=O)c2c(C)[nH]c3sccc23)cc2ccsc21 [Compound I-84] has an EC50 [1, 7] greater than 10000 nM and an EC50 [4, 8] of less than 100 nM.
Compound CCCn1c(C(=O)c2cn(CC3CCOCC3)c3ccccc23)cc2ccsc21 [Compound I-41] has an EC50 [1] of less than 100 nM, an IC50 [2] of less than 100 nM and an EC50 [3] of less than 100 nM. For the same compound, the EC50 [4] was less than 100 nM, the EC50 [5] was less than 100 nM and the IC50 [6] was less than 100 nM.
Work on CCn1c(C(=O)c2cn(CCCNS(C)(=O)=O)c3ccccc23)cc2ccsc21 [Compound I-28] yielded an EC50 [1, 7] of 1000 to 10000 nM, an IC50 [2] of 100 to 1000 nM and an EC50 [3] of less than 100 nM. For the same compound, the EC50 [4, 8] was 100 to 1000 nM, the EC50 [5] was less than 100 nM and the IC50 [6] was less than 100 nM.
CCCn1c(C(=O)c2c(C)n(CCC)c3sccc23)cc2ccsc21 [Compound I-83] was tested, and the EC50 [1, 7] was 100 to 1000 nM, the EC50 [3] was less than 100 nM and the EC50 ([4]; cAMP agonist, HEK, 24-well, read-out: hCB1 EC50 (cAMP ag, nM HEK (24-well))) was less than 100 nM. For the same compound, the EC50 [4, 8] was less than 100 nM.
CCCn1c(C(=O)c2c(C)n(CC3CCOCC3)c3ccccc23)cc2ccsc21 [Compound I-66] gave an EC50 [1] of 100 to 1000 nM, an IC50 [2] of 100 to 1000 nM and an EC50 [3] of less than 100 nM. It also gave an EC50 [4] of less than 100 nM, an EC50 [5] of less than 100 nM and an IC50 [6] of less than 100 nM.
For CCCn1c(C(=O)c2cn(CC)c3ccccc23)cc2ccsc21 [Compound I-42], the EC50 [1, 7] was 100 to 1000 nM, the IC50 [2] was less than 100 nM and the EC50 [3] was less than 100 nM. The EC50 [4, 8] was 100 to 1000 nM, the EC50 [5] was less than 100 nM and the IC50 [6] was less than 100 nM.
CCCCCn1c(C)c(C(=O)c2cc3ccsc3n2CCC)c2ccccc21 [Compound I-60] showed an EC50 [1] of 100 to 1000 nM, an IC50 [2] of less than 100 nM and an EC50 [3] of less than 100 nM. The EC50 [4] was less than 100 nM, the EC50 [5] was less than 100 nM and the IC50 [6] was less than 100 nM.
Compound CCCn1cc(C(=O)c2cc3ccsc3n2CC)c2ccccc21 [Compound I-70] has an EC50 [1] of 100 to 1000 nM, an IC50 [2] of 100 to 1000 nM and an EC50 [3] of less than 100 nM. For the same compound, the EC50 [4] was 100 to 1000 nM, the EC50 [5] was less than 100 nM and the IC50 [6] was less than 100 nM.
In the case of CCCn1c(C)c(C(=O)c2cc3sccc3[nH]2)c2ccccc21 [Compound I-81], the IC50 [2] is reported as 1000 to 10000 nM, the EC50 [3] is reported as 100 to 1000 nM and the “hCB1 EC50 (cAMP ag, nM, HEK (96-well))” value ([4]; cAMP agonist, HEK, 96-well) is reported as “NS (“Not Significant,” which means less than 30% agonist activity when compared to the positive control)”. It also gave an EC50 [5] of 100 to 1000 nM and an IC50 [6] of 100 to 1000 nM.
With CCn1c(C(=O)c2cn(CC3CCOCC3)c3ccccc23)cc2ccsc21 [Compound I-16] the EC50 [1] was less than 100 nM, the IC50 [2] was less than 100 nM and the EC50 [3] was less than 100 nM. The EC50 [4] was less than 100 nM, the EC50 [5] was less than 100 nM and the IC50 [6] was less than 100 nM.
CCCn1cc(C(=O)c2cc3ccsc3n2CC)c2ccncc21 [Compound I-23] was tested, and the IC50 [2] was 1000 to 10000 nM, the EC50 [3] was less than 100 nM and the “hCB1 EC50 (cAMP ag, nM, HEK (96-well))” value ([4]; cAMP agonist, HEK, 96-well) was “NS (“Not Significant,” which means less than 30% agonist activity when compared to the positive control)”. For the same compound, the EC50 [5] was 100 to 1000 nM and the IC50 [6] was less than 100 nM.
Work on CCCn1cc(C(=O)c2cc3ccsc3n2CC)c2cccnc21 [Compound I-34] yielded an EC50 [1] of 100 to 1000 nM, an IC50 [2] of 1000 to 10000 nM and an EC50 [3] of less than 100 nM. The EC50 [4] was 1000 to 10000 nM, the EC50 [5] was less than 100 nM and the IC50 [6] was less than 100 nM.
CCCn1c(C)c(C(=O)c2cc3ccsc3n2CC2CCOCC2)c2ccccc21 [Compound I-72] was tested, and the IC50 [2] was 100 to 1000 nM, the EC50 ([3]; cAMP agonist, HEK, 96-well, read-out: hCB2 EC50 (cAMP ag, nM, HEK (96-well))) was less than 100 nM and the “hCB1 EC50 (cAMP ag, nM, HEK (96-well))” value ([4]; cAMP agonist, HEK, 96-well) was “NS (“Not Significant,” which means less than 30% agonist activity when compared to the positive control)”. It also gave an EC50 ([5]; GTPγS agonist, HEK membranes, read-out: hCB2 EC50 (GTPyS ag, nM, HEK)) of 100 to 1000 nM and an IC50 [6] of 100 to 1000 nM.
CCCn1cc(C(=O)c2cc3ccsc3n2CCC)c2cccnc21 [Compound I-45] was tested, and the EC50 [1] was 100 to 1000 nM, the IC50 [2] was < 100 nM and 100 to 1000 nM and the EC50 [3] was less than 100 nM. It also gave an EC50 [4] of 100 to 1000 nM, an EC50 [5] of less than 100 nM and an IC50 [6] of less than 100 nM.
CCn1c(C(=O)c2c(C)n(CC3CCOCC3)c3ccccc23)cc2ccsc21 [Compound I-17] showed an IC50 [2] of 100 to 1000 nM, an EC50 [3] of less than 100 nM and an EC50 [4] of 100 to 1000 nM. The EC50 [5] was less than 100 nM and the IC50 [6] was less than 100 nM.
